Experimental findings from patent US20060258598A1, “Alpha-keto carbonyl calpain inhibitors” (priority 2003, published 2006) are described below.

For one assay, the target named is T1, human μ-calpain (Homo sapiens, UniProt P07384).
T1 construct: purchased Calbiochem
T1 sequence (P07384 1-714): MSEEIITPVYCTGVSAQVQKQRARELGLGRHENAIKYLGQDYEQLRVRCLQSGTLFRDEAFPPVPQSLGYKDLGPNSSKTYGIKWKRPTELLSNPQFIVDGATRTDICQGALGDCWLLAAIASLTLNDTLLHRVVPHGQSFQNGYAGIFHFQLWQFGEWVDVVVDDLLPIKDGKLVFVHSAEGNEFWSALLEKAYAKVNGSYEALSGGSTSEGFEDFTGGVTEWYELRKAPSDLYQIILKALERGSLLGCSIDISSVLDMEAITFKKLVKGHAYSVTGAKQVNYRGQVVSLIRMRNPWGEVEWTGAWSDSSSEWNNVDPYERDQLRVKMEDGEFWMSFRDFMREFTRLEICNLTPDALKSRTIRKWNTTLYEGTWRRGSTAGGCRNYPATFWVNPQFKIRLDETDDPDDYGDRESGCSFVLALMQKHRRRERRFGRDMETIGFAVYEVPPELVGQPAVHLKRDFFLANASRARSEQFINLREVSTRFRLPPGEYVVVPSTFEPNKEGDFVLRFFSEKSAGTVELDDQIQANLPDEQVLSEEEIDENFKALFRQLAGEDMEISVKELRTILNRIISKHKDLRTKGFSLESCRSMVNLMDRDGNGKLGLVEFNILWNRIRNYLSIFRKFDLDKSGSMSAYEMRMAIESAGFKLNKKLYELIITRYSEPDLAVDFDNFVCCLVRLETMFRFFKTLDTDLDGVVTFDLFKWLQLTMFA
T1 sequence (P04632 1-268 partner): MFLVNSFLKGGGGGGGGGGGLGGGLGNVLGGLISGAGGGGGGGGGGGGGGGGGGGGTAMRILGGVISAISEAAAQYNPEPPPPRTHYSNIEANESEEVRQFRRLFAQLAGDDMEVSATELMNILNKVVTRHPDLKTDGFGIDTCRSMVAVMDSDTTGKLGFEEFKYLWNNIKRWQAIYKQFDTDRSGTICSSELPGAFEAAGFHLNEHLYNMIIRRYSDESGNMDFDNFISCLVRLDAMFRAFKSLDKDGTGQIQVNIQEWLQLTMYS
Put plainly: Enzymatic calpain inhibition assay. The format is biochemical. The conditions noted are these: substrate Suc-Leu-Tyr-AMC, read-out: Calp I IC50. The procedure: The Ki value was also determined in some cases. These criteria were used to measure the inhibitory effect of the compounds (I) on calpain I, calpain II and cathepsin B.
Enzymatic Calpain Inhibition Assay
The inhibitory properties of calpain inhibitors are tested in 100 μl of a buffer containing 100 mM imidazole pH 7.5, 5 mM L-Cystein-HCl, 5 mM CaCl2, 250 μM of the calpain fluorogenic substrate Suc-Leu-Tyr-AMC (Sigma) (Sasaki et al., J. Biol. Chem., 1984, 259, 12489-12949) dissolved in 2.5 μl DMSO and 0.5 μg of human μ-calpain (Calbiochem). The inhibitors dissolved in 1 μl DMSO are added to the reaction buffer. The fluorescence of the cleavage product 7-amino-4-methylcoumarin (AMC) is followed in a SPECTRAmax GEMINI XS (Molecular Device) fluorimeter at λex=360 nm and λem=440 nm at 30° C. during 30 min at intervals of 30 sec in 96-well plates (Greiner). The initial reaction velocity at different inhibitor concentrations is plotted against the inhibitor concentration and the IC50 values determined graphically.

Assay [1] relates to cellular calpains in C2C12 myoblasts. Put plainly: Calpain inhibition assay in C2C12 myoblasts. The conditions noted are these: 2 h incubation, calcium ionophore Br-A-23187, read-out: Calp I IC50 Myoblast. The format is cell-based. As for the experimental part: Calpain Inhibition Assay in C2C12 Myoblasts
This assay is aimed at monitoring the ability of the substance to inhibit cellular calpains. C2C12 myoblasts are grown in 96-well plates in growth medium (DMEM, 20% foetal calf serum) until they reach confluency. The growth medium is then replaced by fusion medium (DMEM, 5% horse serum). 24 hours later the fusion medium is replaced by fusion medium containing the test substances dissolved in 1 μl DMSO. After 2 hours of incubation at 37° C. the cells are loaded with the calpain fluorogenic substrate Suc-Leu-Tyr-AMC at 400 μM in 50 μl of a reaction buffer containing 135 mM NaCl; 5 mM KCl; 4 mM CaCl2; 1 mM MgCl2; 10 mM Glucose; 10 mM HEPES pH 7.25 for 20 min at room temperature. The calcium influx, necessary to activate the cellular calpains, is evoked by the addition of 50 μl reaction buffer containing 20 μM of the calcium ionophore Br-A-23187 (Molecular Probes). The fluorescence of the cleavage product AMC is measured as described above during 60 min at 37° C. at intervals of 1 min. The IC50 values are determined as described above. Comparison of the IC50 determined in the enzymatic calpain inhibition assay to the IC50 determined in the C2C12 myoblasts calpain inhibiton assay, allows to evaluate the cellular uptake or the membrane permeability of the substance.

Assay [2] deals with Primary fibroblasts from donors with Friedreich Ataxia (FRDA). The assay is described as follows: BSO assay (cell viability under BSO-induced oxidative stress). The format is cell-based, human. The conditions noted are these: 24 h preincubation, 1 mM BSO; for EC50: Homo sapiens, Fibroblast. The procedure: Primary fibroblasts were derived from donors with molecular diagnosis for Friedreich Ataxia (FRDA) and control donors with no mitochondrial disease. Cell lines were obtained from Coriell Cell Repositories (Camden, N.J.; catalog numbers GM04078, GM08402 and GM08399 respectively). All cell types were diagnosed on the molecular level for intronic […] triplet repeat length of at least 400-450 repeats using a PCR-based method. Experiments were carried out as described in the literature (M. L. Jauslin et al., Human Mol. Genet., 2002, 11, 3055-3063): Cells were seeded in microtiter plates at a density of 4'000 cells per 100 μl in growth medium consisting of 25% (v/v) M199 EBS and 64% (v/v) MEM EBS without phenol red (Bioconcept, Allschwil, Switzerland) supplemented with 10% (v/v) fetal calf serum (PAA Laboratories, Linz, Austria), 100 U/ml penicillin, 100 μg/ml streptomycin (PAA Laboratories, Linz, Austria), 10 μg/ml insulin (Sigma, Buchs, Switzerland), 10 ng/ml EGF (Sigma, Buchs, Switzerland), 10 ng/ml bFGF (PreproTech, Rocky Hill, N.J.) and 2 mM glutamine (Sigma, Buchs, Switzerland). The cells were incubated in the presence of various test compounds for 24 h before addition of L-buthionine-(S,R)-sulfoximine (BSO) to a final concentration of 1 mM. Cell viability was measured after the first signs of toxicity appeared in the BSO-treated controls (typically after 16 to 48 h). The cells were stained for 60 min at room temperature in PBS with 1.2 μM calcein AM and 4 μM ethidium homodimer (Live/Dead assay, Molecular Probes, Eugene, Oreg.). Fluorescence intensity was measured with a Gemini Spectramax XS spectrofluorimeter (Molecular Devices, Sunnyvale, Calif.) using excitation and emission wavelengths of 485 nm and 525 nm respectively.

Usually IC50 stands for the midpoint of a concentration-inhibition curve. In the case of `CCNC(=O)C(=O)[C@H](CC1CCCCC1)NC(=O)[C@@H](NC(=O)CCCCC1CCSS1)C(C)C` (stereo partly shown) [Example 149], the concentration for half-maximal inhibition (IC50) came to 0.25 µM on human μ-calpain and 3 µM in assay [1].

As to `CCNC(=O)C(=O)[C@H](Cc1ccc(Cl)cc1Cl)NC(=O)[C@@H](NC(=O)CCCCC1CCS[S+]1[O-])C(C)C` (stereo partly shown) [Example 34], the IC50 was 0.5 µM on human μ-calpain and 20 µM in assay [1].

Usually EC50 stands for the concentration at which the effect is half-maximal. A low value points to greater potency. `CCNC(=O)C(=O)[C@H](Cc1ccc(Br)cc1)NC(=O)[C@H](CC(C)C)NC(=O)CNC(=O)CCCCC1CCSS1` (stereo partly shown) [Example 186] showed an EC50 in assay [2] of 5 µM. Moreover, the results for the 50% inhibitory concentration (IC50) (on human μ-calpain; in assay [1]) were 0.04 µM and 1.5 µM, respectively.

Take `CCNC(=O)C(=O)[C@H](Cc1ccc(OC)cc1)NC(=O)[C@@H](NC(=O)CCCCC1SC[C@@H]2NC(=O)N[C@H]12)C(C)C` (stereo partly shown) [Example 165]: the midpoint of the response in assay [2], the EC50, lay at 60 µM. For the same compound, the 50% inhibitory concentration (IC50) amounted to 0.085 µM at human μ-calpain and 11 µM in assay [1].

Turning to `CCNC(=O)C(=O)[C@H](Cc1ccc(O)cc1)NC(=O)[C@H](CC(C)C)NC(=O)CCCCC1CCSS1` (stereo partly shown) [Example 82], the response in assay [2] was half-maximal at 15 µM (EC50). The 50% inhibitory concentration (IC50) at human μ-calpain amounted to 0.04 µM; in assay [1], 10 µM.

In turn, `CCNC(=O)C(=O)[C@H](Cc1ccc(Br)cc1)NC(=O)[C@@H](NC(=O)CNC(=O)CCCCC1CCS[S+]1[O-])C(C)C` (stereo partly shown) [Example 184] had a concentration for a half-maximal effect (EC50) in assay [2] of 10 µM. The IC50 at human μ-calpain was found to be 0.1 µM; in assay [1], 5.5 µM.

The compound `CCNC(=O)C(=O)[C@H](Cc1ccc(C)cc1)NC(=O)[C@H](CC(C)C)NC(=O)CCCCC1CCS[S+]1[O-]` (stereo partly shown) [Example 111] returned an EC50 in assay [2] of 3 µM. The 50% inhibitory concentration (IC50) at human μ-calpain came to 0.025 µM; in assay [1], 1.2 µM.

For the compound `CCNC(=O)C(=O)[C@H](Cc1cccc(C(F)(F)F)c1)NC(=O)[C@H](CC(C)C)NC(=O)CCCCC1CCSS1` (stereo partly shown) [Example 128], a half-maximal response in assay [2] (EC50) required 20 µM. Besides, the figures for the IC50 (on human μ-calpain; in assay [1]) were 0.1 µM and 15 µM, respectively.

On to `CCNC(=O)C(=O)[C@H](Cc1ccc(OC)cc1)NC(=O)[C@@H](NC(=O)CCCCC1CCS[S+]1[O-])C(C)C` (stereo partly shown) [Example 85], for which, in assay [2], the EC50 was determined as 5 µM. In addition, the values for the IC50 (on human μ-calpain; in assay [1]) were 0.08 µM and 0.9 µM, respectively.

`CCNC(=O)C(=O)[C@H](Cc1ccc(Cl)cc1Cl)NC(=O)[C@@H](NC(=O)CCCCC1CCSS1)C(C)C` (stereo partly shown) [Example 33]: the “BSO EC50” value in assay [2] is “inactive”. Moreover, the half-inhibitory concentration (IC50) stood at 0.1 µM on human μ-calpain and 40 µM in assay [1].

Consider `CCNC(=O)C(=O)[C@H](CC(C)C)NC(=O)[C@@H](NC(=O)CCCCC1CCSS1)C(C)C` (stereo partly shown) [Example 157], for which the IC50 came to 0.5 µM at human μ-calpain and 0.25 µM in assay [1].

Consider `CCNC(=O)C(=O)[C@H](Cc1ccc(C(C)(C)C)cc1)NC(=O)[C@@H](NC(=O)CCCCC1CCSS1)C(C)C` (stereo partly shown) [Example 118], for which the IC50 worked out at 0.4 µM at human μ-calpain and 1.8 µM in assay [1].

`CCNC(=O)C(=O)[C@H](Cc1ccc(Cl)cc1)NC(=O)[C@@H](NC(=O)CNC(=O)CCCCC1CCSS1)C(C)C` (stereo partly shown) [Example 169]: the values for the IC50 (at human μ-calpain; in assay [1]) were 0.025 µM and 1 µM, respectively.

`CCNC(=O)C(=O)[C@H](Cc1ccc(F)c(F)c1)NC(=O)[C@@H](NC(=O)CCCCC1CCSS1)C(C)C` (stereo partly shown) [Example 41]: the values for the concentration for half-maximal inhibition (IC50) (on human μ-calpain; in assay [1]) were 0.1 µM and 0.7 µM, respectively.

Regarding `CCNC(=O)C(=O)[C@H](Cc1ccc(C(F)(F)F)cc1)NC(=O)[C@H](CC(C)C)NC(=O)CCCCC1CCS[S+]1[O-]` (stereo partly shown) [Example 125], the IC50 stood at 0.04 µM on human μ-calpain and 0.8 µM in assay [1].

Consider `CCNC(=O)C(=O)[C@H](Cc1ccc(C(C)(C)C)cc1)NC(=O)[C@H](CC(C)C)NC(=O)CCCCC1CCSS1` (stereo partly shown) [Example 120], for which the figures for the IC50 (at human μ-calpain; in assay [1]) were 0.095 µM and 0.85 µM, respectively.

For the compound `CCNC(=O)C(=O)[C@H](Cc1ccc(Cl)c(Cl)c1)NC(=O)[C@@H](NC(=O)CCCCC1CCSS1)C(C)C` (stereo partly shown) [Example 29], the half-inhibitory concentration (IC50) on human μ-calpain turned out to be 0.085 µM; in assay [1], 10 µM.

On to `CCNC(=O)C(=O)[C@@H](NC(=O)[C@@H](NC(=O)CCCCC1CCS[S+]1[O-])C(C)C)c1ccccc1` (stereo partly shown) [Example 154], for which the IC50 at human μ-calpain is 0.75 µM.

For `COc1ccc(C[C@H](NC(=O)[C@@H](NC(=O)CCCCC2CCS[S+]2[O-])C(C)C)C(=O)C(=O)O)cc1` (stereo partly shown) [Example 89], the IC50 was 0.06 µM at human μ-calpain and 4 µM in assay [1].

Take `CCNC(=O)C(=O)[C@H](Cc1ccc(Cl)cc1)NC(=O)[C@@H](NC(=O)CNC(=O)CCCCC1SC[C@@H]2NC(=O)N[C@H]12)C(C)C` (stereo partly shown) [Example 212]: the figures for the half-maximal inhibitory concentration (IC50) (on human μ-calpain; in assay [1]) were 0.15 µM and 3.5 µM, respectively.

`CCNC(=O)C(=O)[C@H](Cc1ccc(Cl)cc1)NC(=O)[C@@H](NC(=O)CNC(=O)CCCCC1CCS[S+]1[O-])C(C)C` (stereo partly shown) [Example 170]: the figures for the IC50 (at human μ-calpain; in assay [1]) were 0.15 µM and 4 µM, respectively.

As to `CCNC(=O)C(=O)[C@H](Cc1ccc(Cl)cc1)NC(=O)[C@@H](NC(=O)CCC1CCCS1)C(C)C` (stereo partly shown) [Example 6], the IC50 at human μ-calpain was determined as 0.11 µM; in assay [1], 3.2 µM.

As to `Cc1ccc(S(=O)(=O)CNC(=O)C(=O)[C@H](Cc2ccc(Cl)cc2)NC(=O)[C@@H](NC(=O)CCCCC2CCS[S+]2[O-])C(C)C)cc1` (stereo partly shown) [Example 14], the IC50 at human μ-calpain turned out to be 0.2 µM; in assay [1] it was 1.2 µM.

As for `CCNC(=O)C(=O)[C@H](Cc1ccc(I)cc1)NC(=O)[C@H](CC(C)C)NC(=O)CCCCC1CCS[S+]1[O-]` (stereo partly shown) [Example 79], the IC50 at human μ-calpain was 0.015 µM; in assay [1], 0.5 µM.
